Counter-ions that a name gives are not always drawn.
Tests used:
GPMVs from HeLa cells = test: Di4 fluorescence lifetime imaging (lipid packing in GPMVs); set-up: species or system human; settings: TLCK 1 μM, C6-ceramide 1 μM, MβCD 5 mM; for phase state of GPMVs in FLIM images: room temperature; for average Di4 lifetime: single-phase GPMVs (MβCD: average across all domains), control 2.53±0.06 ns, mean±SD
Text: It was also of interest how TLCK and C6-ceramide impact other properties of the membrane compared to treatments such as cholesterol depletion that are commonly used to disrupt rafts in cells (Zidovetzki & Levitan, 2007). To test this, we examined their effects on membrane lipid packing and fluidity using a fluorescent reporter of membrane packing, Di-4-[…] (Di4) (Jin et al., 2006; Owen et al., 2006; Sezgin et al., 2014; Levental et al., 2020b; Lorent et al., 2020). As a control, we subjected GPMVs to cholesterol depletion using 5 mM MβCD. The photophysical characteristics of Di4, including its lifetime, are dependent on lipid packing in membranes. In particular, a lower Di4 lifetime is indicative of loose packing and a more fluid membrane environment whereas higher Di4 lifetimes point to a less fluid membranes and tighter lipid packing. […] The phase separated vesicles were characterized by two populations of lifetimes, corresponding to the Lo phase (higher lifetime) and Ld phase (lower lifetime) (FIGS. 11A-11F).
GPMVs were prepared as previously described by Sezgin, E, et al., Nat Protoc 2012, 7 (6), 1042-51. In brief, HeLa cells were washed twice with GPMV buffer (2 mM CaCl2)/10 mM HEPES/0.15 M NaCl, pH 7.4), then washed twice with GPMV active buffer (GPMV buffer containing 25 mM formaldehyde and 2 mM DTT). Cells were then incubated with GPMV active buffer for 1-2 hours at 37° C. with shaking at 90-95 RPM. The GPMV-containing supernatant was decanted into a centrifuge tube and GPMVs were allowed to settle for 1 h. Aliquots of GPMVs (100 μL) were pipetted from the bottom of the Eppendorf tube into separate tubes and treated with DMSO (0.1%), 1 μM TLCK, 1 μM C6-ceramide or 5 mM MbCD. After 5 min, Di 4 […] (Di4) (Thermo Scientific) was added to a final concentration of […] from a stock solution of 1 mg/mL Di4 in ethanol. The GPMVs were then sandwiched between two coverslips coated with 1 mg/mL bovine serum albumin (BSA) solution and allowed to incubate for an additional 20 min prior to lifetime measurements.
Di4 lifetime images were performed on a Leica TCS SP8 system comprising a Leica DMi8 inverted scanning confocal microscope with time-correlated single photon counting (TC-SPC) system and an 80 MHz-pulsed supercontinuum white light laser which allows continuously tunable excitation in the visible range coupled with filter-free detection. Samples were imaged using an HC PL APO CS2 63X/1.20 water objective. Di4 was excited at 488 nm and the emission was collected in the 550-800 nm range. The photon count rate was kept under 0.5 photons per laser pulse by adjusting the laser power, and sufficient frames were cumulatively acquired to obtain at least 100 photons per pixel. The fluorescence decay curves were fit with a bi-exponential re-convolution function adjusted to the instrument response function, and the average intensity-weighted lifetime was calculated for individual vesicles or area of interest and represented in the FLIM images as Di4 lifetime. Data are reported from two independent experiments. Statistical analyses were performed using GraphPad Prism 9.3.0.

[1] = test system: GPMVs isolated from HeLa cells; test: High-throughput screen of the Cayman bioactive lipid library for effects on GPMV phase behavior (% phase separated vesicles, NBD-DSPE phase preference); set-up: species or system human; settings: for Effect on % phase separated vesicles: final drug concentration 1 μM, NBD-DSPE channel; for % phase separated z-score / Pordered z-score: Table 4; for Pordered z-score: NBD-DSPE
Experimental: This approach is not practical for high throughput screening applications, which typically are performed at a single temperature. Changes in the percentage of phase-separated GPMVs were monitored at a single temperature in response to the addition of small molecules as a surrogate for measuring Tmisc directly (FIG. 1A). This approach requires that a significant fraction of GPMVs are phase separated under control conditions, such that experimentally-induced changes can be readily detected.
In phase separated vesicles these markers are enriched in their preferred domains, such that a given vesicle contains a co-existing NBD-DSPE-rich phase and a DiD-rich phase. In contrast, NBD-DSPE and DiD colocalize in a single uniform phase in GPMVs that are not phase separated. We also optimized conditions to isolate and plate GPMVs in multi-well plates.
To provide proof-of-concept, the Cayman lipid library containing ˜850 bioactive lipid-like compounds in the Vanderbilt High-throughput Screening Facility was screened, using […] of each compound across three independent screens. All screens were carried out using an automated microscope/high-content imaging system and robotic plate handler at RT. […] Compounds were initially scored based on their capacity to alter the percentage of phase separated vesicles (FIG. 2A).
HeLa cells were obtained from ATCC (cat #CCL-2) and cultured at 37° C. in 5% CO2 in a humidified tissue culture incubator. […] In brief, cells were plated in 150 mm tissue culture dishes the day before the experiment, to yield a confluence of 70-80% the day of the experiment. To generate GPMVs, cells were rinsed twice in 10 ml of GPMV buffer (2 mM DTT, 25 mM formaldehyde, 150 mM NaCl, 10 mM HEPES, 2 mM CaCl2), pH=7.4) and subsequently incubated in 12 ml of GPMV buffer at 37° C. with gentle shaking at 70 rpm for 1.5 h. The raft marker NBD-DSPE (1,2-distearoyl-sn-glycero-3-phosphoethanolamine-N-(7-nitro-2-1,3-benzoxadiazol-4-yl; Avanti Polar Lipids) and the non-raft marker DiD (1,1′-dioctadecyl-3,3,3′,3′-tetramethylindodicarbocyanine perchlorate; cat #D307 Thermo Scientific) were added from stock solutions in ethanol to the GPMV suspension at final concentrations of 5-6 μg/ml and 1 μg/ml, respectively, for the initial screenings. For some experiments, cells were prelabelled with 5 μg/ml DiD for 8 min at 4° C. and washed several times prior to GPMVs generation. Screening was performed the same day that GPMVs were generated.
[…] GPMVs suspension in GPMV buffer was then added to each well of a 96-well plate to obtain a final drug concentration of 1 μM. The GPMVs were allowed to settle to the bottom of the plates for 1.5 h prior to imaging. Samples were prepared and imaged at RT. The screen was repeated on three different days using three separately prepared batches of GPMVs (3 biological replicates).
Image acquisition was performed with an ImageXpress Micro XL automated microscope (Molecular Devices) using a Nikon 40X 0.6 NA Super Plan Fluor ELWD objective and a Lumencor Sola solid-state light source. Laser autofocus was employed at each site to obtain the best focus z-plane for each channel. […] Sixteen sites were captured per well using a 4.2 MP widefield scientific cMOS camera with a camera binning of 1. Each plate took approximately 1.3 h to image. Multiple plates were loaded to a plate carousel (ThermoScientific), shuttled to/from the ImageXpress via a ThermoScientific CRS F3 robot arm, and automatically run through the Momentum scheduling software (Thermo). To analyze the data, images and metadata were exported as TIFF files and subjected to image analysis using a custom MATLAB-based program as described below.

Compound | phase state of GPMVs in FLIM images (GPMVs from HeLa cells) | average Di4 lifetime (GPMVs from HeLa cells) [ns] | Effect on % phase separated vesicles ([1]; HeLa GPMVs, RT) | Effect on Pang(ϕ) ([1]; NBD-DSPE raft phase preference, HeLa GPMVs, final 1 μM, RT) | % phase separated z-score ([1]; HeLa GPMVs, final 1 μM, RT) | Pordered z-score ([1]; HeLa GPMVs, final 1 μM, RT) | raft modulation in the GPMV model ([1]; screen result in words)
Cc1ccc(S(=O)(=O)N[C@@H](CCCCN)C(=O)CCl)cc1 [TLCK hydrochloride, Nα-Tosyl-Lys Chloromethyl Ketone] | mixture of phase separated | 2.43±0.06 | ↑ | ↑ | 6.73 | 5.69 | potent raft stabilizer
CCCCCCCCCCCCC/C=C/[C@@H](O)[C@H](CO)NC(=O)CCCCC [C6 Ceramide (d18:1/6:0)] | contained a single membrane phase | 2.53±0.11 | ↓ |  | −3.01 | 0.76 | 
